Data on 5 molecules can be found in patent US20250162994A1, “DUAL LSD1/HDAC INHIBITORS” (JUBILANT EPICORE LLC, priority 2022, published 2025).

As usually defined, the IC50 is the point on the concentration scale where inhibition reaches its midpoint.

The structures appear in SMILES notation.

What all share (type): biochemical
The target of test [1] is HDAC6 (Homo sapiens (Human), UniProt Q9UBN7). Description: Histone deacetylase assay (BPS Biosciences), HDAC6. As to conditions: human recombinant enzyme. The procedure: Histone deacetylase assay was done as per manufacturer's instructions. […] Fluorescence was measured at an excitation wavelength of 350-380 nm and emission wavelength of 440-480 nm.
Sequence of HDAC6 (Q9UBN7 whole entry): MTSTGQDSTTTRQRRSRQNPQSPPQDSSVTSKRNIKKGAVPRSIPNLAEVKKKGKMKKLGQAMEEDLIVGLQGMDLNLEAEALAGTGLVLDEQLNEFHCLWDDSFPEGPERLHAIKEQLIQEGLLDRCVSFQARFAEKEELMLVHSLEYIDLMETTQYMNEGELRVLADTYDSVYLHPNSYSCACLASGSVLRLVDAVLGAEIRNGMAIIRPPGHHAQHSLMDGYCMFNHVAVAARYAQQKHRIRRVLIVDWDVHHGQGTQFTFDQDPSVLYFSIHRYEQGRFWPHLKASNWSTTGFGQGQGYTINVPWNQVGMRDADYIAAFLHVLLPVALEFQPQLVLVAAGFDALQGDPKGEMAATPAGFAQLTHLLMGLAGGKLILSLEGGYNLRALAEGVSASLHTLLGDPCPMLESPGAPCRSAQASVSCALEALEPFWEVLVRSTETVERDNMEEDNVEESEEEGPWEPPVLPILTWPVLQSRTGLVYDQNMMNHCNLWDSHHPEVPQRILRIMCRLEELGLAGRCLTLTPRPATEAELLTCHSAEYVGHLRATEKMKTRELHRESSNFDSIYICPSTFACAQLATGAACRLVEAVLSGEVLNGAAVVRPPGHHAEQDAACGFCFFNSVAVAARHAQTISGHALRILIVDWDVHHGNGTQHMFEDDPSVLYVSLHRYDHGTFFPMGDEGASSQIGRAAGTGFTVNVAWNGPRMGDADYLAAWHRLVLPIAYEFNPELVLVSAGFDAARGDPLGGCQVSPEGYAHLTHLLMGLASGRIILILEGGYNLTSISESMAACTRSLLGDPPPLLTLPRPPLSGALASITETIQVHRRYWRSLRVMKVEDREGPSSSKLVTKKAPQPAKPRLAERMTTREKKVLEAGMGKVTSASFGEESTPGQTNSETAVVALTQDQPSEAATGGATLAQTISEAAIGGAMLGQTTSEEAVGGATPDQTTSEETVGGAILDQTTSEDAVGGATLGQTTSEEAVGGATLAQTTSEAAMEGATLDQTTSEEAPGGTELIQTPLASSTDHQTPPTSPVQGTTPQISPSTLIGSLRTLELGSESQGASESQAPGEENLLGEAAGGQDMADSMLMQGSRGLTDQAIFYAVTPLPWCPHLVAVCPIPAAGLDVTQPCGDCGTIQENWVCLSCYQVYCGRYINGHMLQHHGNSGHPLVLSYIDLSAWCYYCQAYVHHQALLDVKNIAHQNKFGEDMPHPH
In test [2] the target is HDAC1 (Homo sapiens (Human), UniProt Q13547). In words: Histone deacetylase assay (BPS Biosciences), HDAC1. The following applies: human recombinant enzyme. As for the experimental part:
Histone deacetylase assay was done as per manufacturer's instructions. Briefly, assay buffer, 200 uM HDAC substrate (fluorogenic HDAC acetylated peptide substrate for class I HDACs (HDACs 1, 2 and 3) and class 2b HDACs (HDACs 6 and 10) and 1% BSA are taken as a master mixture and aliquoted as 40 uL per well. Compounds (10×) were diluted in assay buffer and were added to respective wells of a black 96 well plate. For HDAC1 (1.4 ng/μL) and for HDAC6 (7 ng/μL) human recombinant enzyme was thawed on ice and 5 μL of respective enzyme was added per well. The plate was incubated at 37° C. for 1 hour. Developer solution was then added (50 μL per well) and incubated at room temperature for 10 minutes. Fluorescence was measured at an excitation wavelength of 350-380 nm and emission wavelength of 440-480 nm.

For test [3], the target named is LSD1 (Homo sapiens (Human), UniProt O60341). In words: TR-FRET assay for LSD1 (Perkin Elmer). The procedure:
LSD1 enzyme was produced in house. Tranylcypromine (TCP), LSD1 inhibitor was procured from Selleckchem. LSD1 enzyme, TCP and Biotinylated peptide substrate were diluted in assay buffer just before use. 2× inhibitor (10 μL, diluted in assay buffer) or Assay Buffer, and 5 nM enzyme were added to a 96 well plate and incubated at room temperature for 30 min. […] Stop Solution containing 300 μM tranylcypromine in 1×LANCE Detection Buffer was added to the wells and incubated for 5 min at RT. Then, Detection mixture containing 2 nM Eu-Ab and 50 nM ULight-Streptavidin in 1×LANCE Detection Buffer was prepared and added to the reaction mixture. This mixture was incubated for 1 hour at room temperature.
On the technique in general: TR-FRET usually uses a lanthanide donor and a delayed reading to cut background.

Sequence of HDAC1 (Q13547 whole entry): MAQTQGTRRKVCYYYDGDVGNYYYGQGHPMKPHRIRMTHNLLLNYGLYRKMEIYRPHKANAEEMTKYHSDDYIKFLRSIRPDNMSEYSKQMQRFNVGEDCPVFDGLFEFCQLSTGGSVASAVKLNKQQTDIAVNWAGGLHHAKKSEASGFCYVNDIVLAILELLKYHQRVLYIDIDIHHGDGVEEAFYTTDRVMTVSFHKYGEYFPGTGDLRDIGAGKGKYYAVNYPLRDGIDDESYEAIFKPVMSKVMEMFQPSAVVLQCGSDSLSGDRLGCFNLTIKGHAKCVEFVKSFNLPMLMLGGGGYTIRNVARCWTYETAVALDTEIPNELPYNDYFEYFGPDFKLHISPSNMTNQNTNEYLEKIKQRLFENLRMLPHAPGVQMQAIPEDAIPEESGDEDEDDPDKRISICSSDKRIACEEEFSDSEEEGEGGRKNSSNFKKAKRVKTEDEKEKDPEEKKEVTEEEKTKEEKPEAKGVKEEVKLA

As for `Nc1ccccc1NC(=O)c1ccc(Cn2cc(CN[C@@H]3C[C@H]3c3ccccc3)cn2)cc1` [Compound 30, N-(2-aminophenyl)-4-((4-((((1R,2S)-2-phenylcyclopropyl)amino)methyl)-1H-pyrazol-1-yl)methyl)benzamide], the IC50 in test [1] was greater than 10000 nM; in test [2], 181 nM; in test [3], 27 nM.

As to `CN1C(=O)C(C)(C)c2cc([C@H]3C[C@@H]3NCC3CCN(CCCc4ccc(C(=O)NO)cc4)CC3)ccc21` [Compound 10, N-hydroxy-4-(3-(4-((((1S,2R)-2-(1,3,3-trimethyl-2-oxoindolin-5-yl)cyclopropyl)amino)methyl)piperidin-1-yl)propyl)benzamide], the results for the concentration for half-maximal inhibition (IC50) in test [1] and in test [3] were 135 nM and 1210 nM, respectively.

In the case of `O=C(NO)c1ccc(CCCN2CCC(CN[C@H]3C[C@@H]3c3ccc(-c4cncnc4)cc3)CC2)cc1` [Compound 8, N-hydroxy-4-(3-(4-((((1S,2R)-2-(4-(pyrimidin-5-yl)phenyl)cyclopropyl)amino)methyl)piperidin-1-yl)propyl)benzamide], the IC50 in test [1] was determined as 159 nM; in test [2], 2470 nM; in test [3], 8 nM.

`O=C(NO)c1ccc(CCCN2CCC(CN[C@@H]3C[C@H]3c3ccc(-c4cncnc4)cc3)CC2)cc1` [Compound 7, N-hydroxy-4-(3-(4-((((1R,2S)-2-(4-(pyrimidin-5-yl)phenyl)cyclopropyl)amino)methyl)piperidin-1-yl)propyl)benzamide]: the IC50 came out at 151 nM in test [1], 4530 nM in test [2] and 6 nM in test [3].

`O=C(NO)c1ccc(CCCN2CCC(CN[C@H]3C[C@@H]3c3cnn(-c4ccccc4)c3)CC2)cc1` [Compound 4, N-hydroxy-4-(3-(4-((((1S,2R)-2-(1-phenyl-1H-pyrazol-4-yl)cyclopropyl)amino)methyl)piperidin-1-yl)propyl)benzamide]: the IC50 in test [1] amounted to 72 nM; in test [3], 5 nM.
